# Columns and labels:
# [1] = tested on: chronically stressed rats; experiment: Forced swimming test of rats (chronic stress model); type: in vivo; settings: vs model control group
# From the text: (§1) The rats in the normal control group were raised normally under a condition without any stimulation except for weighing body weight, measuring body temperature, and subjected to sugar test. All of other groups were subjected to stimulations of same type and same strength. During the experiment, different types of stimulations were applied in an unpredictable manner, and the same type of stimulation was enhanced each time.
# (§2) The chronic stress course was 20 days in total, once per day, from 9:00 AM to 2:00 PM. The stress protocol was shown as follows: horizontally shaking at a high speed for 45 min; nipping tails (1 cm from the tail root): 1 min; depriving of water for 24 h; forbidding moving for 1.5 h; fasting for 24 h; stimulating with ice water (water temperature: 10° C.) for 5 min; electric shocking (1 mA, time course: is, 1 shock/min) the bottoms of feet for 30 min; changing cages and raising separately for 24 h; forbidding moving for 2 h; nipping tails (1 cm from the root of tail) for 1 min; depriving of water for 24 h; horizontally shaking at a high speed for 1.5 h; fasting for 24 h; nipping tails (1 cm from the tail root): 1 min; electric shocking (1 mA, time course: 1 s, 1 shock/min) the bottoms of feet for 40 min; stimulating with ice water for 5 min; changing cages and raising separately for 24 h; horizontally shaking at a high speed for 60 min; electric shocking (1 mA, time course: 1 s, 1 shock/min) the bottoms of feet for 50 min; depriving of water for 24 h; forbidding moving for 2.5 h; and 24 h social isolation.
# Please see FIG. 7. 24 hours before the formal test, rats were placed into a round glass container (height: 40 cm, diameter: 18 cm) filled with water (depth: 23 cm) with a temperature of 24±1° C., and forced to conduct swim training for 15 min. […] The accumulative immobile time within the last 4 min was observed and recorded for each rat. The immobile time is intended to mean the period within which the rat stops to struggle, floats in the water and keeps immobile, or only makes a few slight movements that are necessary to keep its head floating on the surface of water.
# [2] = tested on: chronically stressed rats; experiment: Measurement of body temperature of chronically stressed rats; type: in vivo; settings: for Body temperature after stress: chronic stress 21 days
# From the text: as §1
# as §2, with “The” for “The chronic stress course was 20 days in total, once per day, from 9:00 AM to 2:00 PM. The”
# The front part of a digital thermometer was coated with liquid paraffin, and then inserted into the anus of a rat with a depth of approximately 1 cm. The temperature was read twice accordingly and averaged.
# Hela cell = experiment: Inhibitory effect on tumor cells, MTT method; type: cell-based; settings: 25 μM, 72 h
# Experimental: (§3) The tumor cells with a stable passage feature, including Hela tumor cells, renal cancer cells, breast cancer cells, gastric cancer cells, rectal cancer cells, pulmonary cancer cells, hepatic cancer cells HepG2, prostate cancer cells, esophageal cancer cells, sarcoma cells, glioma cells, melanoma cells, lymphoma cells, and bladder cancer cells, were counted under a microscope (×10^4), and cultured in a 96-well plate under CO2 saturated water vapor for 24 h.
# Sarcoma cell = experiment: Inhibitory effect on tumor cells, MTT method; type: cell-based; settings: 25 μM, 72 h
# Experimental: as §3
# Lymphoma cell = experiment: Inhibitory effect on tumor cells, MTT method; type: cell-based; settings: 25 μM, 72 h
# Experimental: as §3
# [3] = tested on: Pulmonary cancer cell A549; experiment: Inhibitory effect on tumor cells, MTT method; type: cell-based; settings: Pulmonary cancer cell A549, 25 μM, 72 h
# Experimental: as §3
# Breast cancer cell BT474 = experiment: Inhibitory effect on tumor cells, MTT method; type: cell-based; settings: Breast cancer cell BT474, 25 μM, 72 h
# Experimental: as §3
# Renal cancer cell 7860 = experiment: Inhibitory effect on tumor cells, MTT method; type: cell-based; settings: Renal cancer cell 7860, 25 μM, 72 h
# Experimental: as §3
# [4] = tested on: Rectal cancer cell HCT116; experiment: Inhibitory effect on tumor cells, MTT method; type: cell-based; settings: Rectal cancer cell HCT116, 25 μM, 72 h
# Experimental: as §3
# [5] = tested on: Gastric cancer cell MGC80-3; experiment: Inhibitory effect on tumor cells, MTT method; type: cell-based; settings: Gastric cancer cell MGC80-3, 25 μM, 72 h
# Experimental: as §3
# Esophageal cancer cell = experiment: Inhibitory effect on tumor cells, MTT method; type: cell-based; settings: 25 μM, 72 h
# Experimental: as §3
# Melanoma cell = experiment: Inhibitory effect on tumor cells, MTT method; type: cell-based; settings: 25 μM, 72 h
# Experimental: as §3
# Glioma cell = experiment: Inhibitory effect on tumor cells, MTT method; type: cell-based; settings: 25 μM, 72 h
# Experimental: as §3
# [6] = tested on: Hepatic cancer cell HepG2; experiment: Inhibitory effect on tumor cells, MTT method; type: cell-based; settings: Hepatic cancer cell HepG2, 25 μM, 72 h
# Experimental: as §3
# Prostate cancer cell = experiment: Inhibitory effect on tumor cells, MTT method; type: cell-based; settings: 25 μM, 72 h
# Experimental: as §3
# Bladder cancer cell = experiment: Inhibitory effect on tumor cells, MTT method; type: cell-based; settings: 25 μM, 72 h
# Experimental: as §3
# S-180 cells = experiment: Effect on apoptosis of tumor cells, cell cycle by flow cytometry; type: in vivo, mice; settings: sarcoma cell cycle, S-180 tumor fluid, 7 days
# From the text: During the experiment, the mice were inoculated with S-180 cells (×10^7) in armpits. Seven days later, the mice were sacrificed by decollation and the tumors were removed. Tumor fluid was collected from tumors, and used for determining cell cycle by flow cytometry after ethanol fixation.
# [7] = 4.6 mg/kg subcutaneous once every 7 days
# [8] = 9.2 mg/kg subcutaneous once every 7 days
# [9] = 18.4 mg/kg subcutaneous once every 7 days
substance,measurement,setting,value
curcumin decanoate [long acting curcumin],reduced the accumulative immobile time of the forced swimming test,[1]; 4.6 mg/kg once every 7 days,37.6%
same,reduced the accumulative immobile time of the forced swimming test,[1]; 9.2 mg/kg once every 7 days,49.4%
same,reduced the accumulative immobile time of the forced swimming test,[1]; 18.4 mg/kg once every 7 days,58.9%
same,Body temperature before stress,[2]; [7],37.06 ± 0.125 °C
same,Body temperature after stress,[2]; [7],37.40 ± 0.079 °C
same,Body temperature before stress,[2]; [8],37.06 ± 0.158 °C
same,Body temperature after stress,[2]; [8],37.45 ± 0.074 °C
same,Body temperature before stress,[2]; [9],37.00 ± 0.122 °C
same,Body temperature after stress,[2]; [9],37.48 ± 0.088 °C
same,Inhibitory rate (%),Hela cell,37.3 ± 2.4%
same,Inhibitory rate (%),Sarcoma cell,45.5 ± 1.6%
same,Inhibitory rate (%),Lymphoma cell,55.8 ± 1.7%
same,Inhibitory rate (%),[3],35.9 ± 1.2%
same,Inhibitory rate (%),Breast cancer cell BT474,52.7 ± 1.6%
same,Inhibitory rate (%),Renal cancer cell 7860,60.6%
same,Inhibitory rate (%),[4],58.9 ± 2.1%
same,Inhibitory rate (%),[5],42.6 ± 1.7%
same,Inhibitory rate (%),Esophageal cancer cell,35.5 ± 1.1%
same,Inhibitory rate (%),Melanoma cell,49.9 ± 2.0. %
same,Inhibitory rate (%),Glioma cell,58.8 ± 1.5%
same,Inhibitory rate (%),[6],43.7 ± 1.4%
same,Inhibitory rate (%),Prostate cancer cell,39.7 ± 1.3%
same,Inhibitory rate (%),Bladder cancer cell,55.2 ± 1.0%
same,APO % (apoptosis level of tumor cells),S-180 cells,44.7%
same,G1 %,S-180 cells,64.9%
same,G2 %,S-180 cells,1.0%
same,S %,S-180 cells,34.1%
